Test results: ChEMBL document CHEMBL3044556, “Managing weeds with drip-applied herbicides in tomato” (2008)

How the values were obtained:
Assay type in all cases: functional
Cyperus [1] = assay: Pre-emergence herbicidal activity against Cyperus in tomato field assessed as number of weeds at 1.14 kg/ha applied through drip lines/backpack-spray on week 3 to 4 before transplanting measured 7 weeks after treatment (reference value: 3 plants/m2)
Eleusine indica [2] = assay: Pre-emergence herbicidal activity against Eleusine indica in tomato field assessed as number of weeds at 1.14 kg/ha applied through drip lines/backpack-spray on week 3 to 4 before transplanting measured 7 weeks after treatment (reference value: 9 plants/m2)
Digitaria [3] = assay: Pre-emergence herbicidal activity against Digitaria spp. in tomato field assessed as increase in extra-large fruit weight at 1.14 kg/ha applied through drip lines/backpack-spray on week 3 to 4 before transplanting relative to untreated control
Amaranthus dubius [4] = assay: Pre-emergence herbicidal activity against Amaranthus dubius in tomato field assessed as number of weeds at 1.14 kg/ha applied through drip lines/backpack-spray on week 3 to 4 before transplanting measured 12 weeks after treatment (reference value: 9 plants/m2)
Amaranthus dubius [5] = assay: Pre-emergence herbicidal activity against Amaranthus dubius in tomato field assessed as increase in extra-large fruit weight at 1.14 kg/ha applied through drip lines/backpack-spray on week 3 to 4 before transplanting relative to untreated control
Poaceae [6] = assay: Pre-emergence herbicidal activity against Poaceae (grass family) in tomato field assessed as number of weeds at 1.14 kg/ha applied through drip lines/backpack-spray on week 3 to 4 before transplanting measured 7 weeks after treatment (reference value: 6 plants/m2)
Trianthema [7] = assay: Pre-emergence herbicidal activity against Trianthema spp. in tomato field assessed as number of extra-large fruits at 1.14 kg/ha applied through drip lines/backpack-spray on week 3 to 4 before transplanting (reference value: 21.3 x 10 '3 ha); settings: pooled result: one value given for 8 cell lines, strains, targets or settings
Echinochloa colona [8] = assay: Pre-emergence herbicidal activity against Echinochloa colona in tomato field assessed as number of weeds at 1.14 kg/ha applied through drip lines/backpack-spray on week 3 to 4 before transplanting measured 7 weeks after treatment (reference value: 9 plants/m2)
Echinochloa colona [9] = assay: Pre-emergence herbicidal activity against Echinochloa colona in tomato field assessed as increase in extra-large fruit weight at 1.14 kg/ha applied through drip lines/backpack-spray on week 3 to 4 before transplanting relative to untreated control
Cyperus [10] = assay: Pre-emergence herbicidal activity against Cyperus in tomato field assessed as number of weeds at 1.14 kg/ha applied through drip lines/backpack-spray on week 3 to 4 before transplanting measured 12 weeks after treatment (reference value: 5 plants/m2)
Eleusine indica [11] = assay: Pre-emergence herbicidal activity against Eleusine indica in tomato field assessed as increase in extra-large fruit weight at 1.14 kg/ha applied through drip lines/backpack-spray on week 3 to 4 before transplanting relative to untreated control
Eleusine indica [12] = assay: Pre-emergence herbicidal activity against Eleusine indica in tomato field assessed as increase in total marketable weight at 1.14 kg/ha applied through drip lines/backpack-spray on week 3 to 4 before transplanting relative to untreated control; settings: pooled result: one value given for 8 cell lines, strains, targets or settings
Boerhavia erecta [13] = assay: Pre-emergence herbicidal activity against Boerhavia erecta in tomato field assessed as number of weeds at 1.14 kg/ha applied through drip lines/backpack-spray on week 3 to 4 before transplanting measured 12 weeks after treatment (reference value: 9 plants/m2)
Eleusine indica [14] = assay: Pre-emergence herbicidal activity against Eleusine indica in tomato field assessed as total number of fruits at 1.14 kg/ha applied through drip lines/backpack-spray on week 3 to 4 before transplanting (reference value: 49.5 x 10 '3 ha); settings: pooled result: one value given for 8 cell lines, strains, targets or settings
Echinochloa colona [15] = assay: Pre-emergence herbicidal activity against Echinochloa colona in tomato field assessed as number of weeds at 1.14 kg/ha applied through drip lines/backpack-spray on week 3 to 4 before transplanting measured 12 weeks after treatment (reference value: 9 plants/m2)
Eleusine indica [16] = assay: Pre-emergence herbicidal activity against Eleusine indica in tomato field assessed as number of weeds at 1.14 kg/ha applied through drip lines/backpack-spray on week 3 to 4 before transplanting measured 12 weeks after treatment (reference value: 9 plants/m2)
Trianthema [17] = assay: Pre-emergence herbicidal activity against Trianthema spp. in tomato field assessed as number of weeds at 1.14 kg/ha applied through drip lines/backpack-spray on week 3 to 4 before transplanting measured 7 weeks after treatment (reference value: 9 plants/m2)
Digitaria [18] = assay: Pre-emergence herbicidal activity against Digitaria spp. in tomato field assessed as number of weeds at 1.14 kg/ha applied through drip lines/backpack-spray on week 3 to 4 before transplanting measured 7 weeks after treatment (reference value: 9 plants/m2)
Portulaca oleracea [19] = assay: Pre-emergence herbicidal activity against Portulaca oleracea in tomato field assessed as number of weeds at 1.14 kg/ha applied through drip lines/backpack-spray on week 3 to 4 before transplanting measured 7 weeks after treatment (reference value: 9 plants/m2)
Poaceae [20] = assay: Pre-emergence herbicidal activity against Poaceae (grass family) in tomato field assessed as number of weeds at 1.14 kg/ha applied through drip lines/backpack-spray on week 3 to 4 before transplanting measured 12 weeks after treatment (reference value: 8 plants/m2)
Corynandra viscosa [21] = assay: Pre-emergence herbicidal activity against Cleome viscosa in tomato field assessed as number of weeds at 1.14 kg/ha applied through drip lines/backpack-spray on week 3 to 4 before transplanting measured 12 weeks after treatment (reference value: 9 plants/m2)
Boerhavia erecta [22] = assay: Pre-emergence herbicidal activity against Boerhavia erecta in tomato field assessed as increase in extra-large fruit weight at 1.14 kg/ha applied through drip lines/backpack-spray on week 3 to 4 before transplanting relative to untreated control
Boerhavia erecta [23] = assay: Pre-emergence herbicidal activity against Boerhavia erecta in tomato field assessed as number of weeds at 1.14 kg/ha applied through drip lines/backpack-spray on week 3 to 4 before transplanting measured 7 weeks after treatment (reference value: 9 plants/m2)
Trianthema [24] = assay: Pre-emergence herbicidal activity against Trianthema spp. in tomato field assessed as number of weeds at 1.14 kg/ha applied through drip lines/backpack-spray on week 3 to 4 before transplanting measured 12 weeks after treatment (reference value: 9 plants/m2)
Corynandra viscosa [25] = assay: Pre-emergence herbicidal activity against Cleome viscosa in tomato field assessed as number of weeds at 1.14 kg/ha applied through drip lines/backpack-spray on week 3 to 4 before transplanting measured 7 weeks after treatment (reference value: 9 plants/m2)
Portulaca oleracea [26] = assay: Pre-emergence herbicidal activity against Portulaca oleracea in tomato field assessed as number of weeds at 1.14 kg/ha applied through drip lines/backpack-spray on week 3 to 4 before transplanting measured 12 weeks after treatment (reference value: 9 plants/m2)
Trianthema [27] = assay: Pre-emergence herbicidal activity against Trianthema spp. in tomato field assessed as increase in extra-large fruit weight at 1.14 kg/ha applied through drip lines/backpack-spray on week 3 to 4 before transplanting relative to untreated control
Digitaria [28] = assay: Pre-emergence herbicidal activity against Digitaria spp. in tomato field assessed as number of weeds at 1.14 kg/ha applied through drip lines/backpack-spray on week 3 to 4 before transplanting measured 12 weeks after treatment (reference value: 9 plants/m2)
Amaranthus dubius [29] = assay: Pre-emergence herbicidal activity against Amaranthus dubius in tomato field assessed as number of weeds at 1.14 kg/ha applied through drip lines/backpack-spray on week 3 to 4 before transplanting measured 7 weeks after treatment (reference value: 9 plants/m2)
Corynandra viscosa [30] = assay: Pre-emergence herbicidal activity against Cleome viscosa in tomato field assessed as increase in extra-large fruit weight at 1.14 kg/ha applied through drip lines/backpack-spray on week 3 to 4 before transplanting relative to untreated control
Portulaca oleracea [31] = assay: Pre-emergence herbicidal activity against Portulaca oleracea in tomato field assessed as increase in extra-large fruit weight at 1.14 kg/ha applied through drip lines/backpack-spray on week 3 to 4 before transplanting relative to untreated control

Q: With `CCc1cccc(C)c1N(C(=O)CCl)[C@@H](C)COC` [S-METOLACHLOR] as the compound, how does the Activity (Cyperus [1]) read?
A: Its Activity is 2 /m2.

Q: What about the Activity (Eleusine indica [2]) of the same compound?
A: Its Activity is 3 /m2.

Q: And the Activity (Digitaria [3])?
A: Its Activity is 75%.

Q: And the Activity (Amaranthus dubius [4])?
A: The Activity was 2 /m2.

Q: What about the Activity (Amaranthus dubius [5]) of the same compound?
A: The Activity was 75%.

Q: What about the Activity (Poaceae [6]) of the same compound?
A: The Activity was 0 /m2.

Q: And the Activity (Trianthema [7])?
A: Its Activity is 35 10^3 fruits/ha.

Q: What about the Activity (Echinochloa colona [8]) of the same compound?
A: The Activity was 3 /m2.

Q: What about the Activity (Echinochloa colona [9]) of the same compound?
A: Its Activity is 75%.

Q: And the Activity (Cyperus [10])?
A: Its Activity is 9 /m2.

Q: What about the Activity (Eleusine indica [11]) of the same compound?
A: Its Activity is 75%.

Q: What about the Activity (Eleusine indica [12]) of the same compound?
A: The Activity was 57%.

Q: What about the Activity (Boerhavia erecta [13]) of the same compound?
A: The Activity was 2 /m2.

Q: And the fruit count (Eleusine indica [14])?
A: Its fruit count is 70.8 10^3 fruits/ha.

Q: What about the Activity (Echinochloa colona [15]) of the same compound?
A: Its Activity is 2 /m2.

Q: And the Activity (Eleusine indica [16])?
A: Its Activity is 2 /m2.

Q: And the Activity (Trianthema [17])?
A: The Activity was 3 /m2.

Q: And the Activity (Digitaria [18])?
A: Its Activity is 3 /m2.

Q: What about the Activity (Portulaca oleracea [19]) of the same compound?
A: Its Activity is 3 /m2.

Q: And the Activity (Poaceae [20])?
A: Its Activity is 3 /m2.

Q: And the Activity (Corynandra viscosa [21])?
A: Its Activity is 2 /m2.

Q: And the Activity (Boerhavia erecta [22])?
A: Its Activity is 75%.

Q: What about the Activity (Boerhavia erecta [23]) of the same compound?
A: The Activity was 3 /m2.

Q: What about the Activity (Trianthema [24]) of the same compound?
A: The Activity was 2 /m2.

Q: And the Activity (Corynandra viscosa [25])?
A: Its Activity is 3 /m2.

Q: What about the Activity (Portulaca oleracea [26]) of the same compound?
A: The Activity was 2 /m2.

Q: What about the Activity (Trianthema [27]) of the same compound?
A: The Activity was 75%.

Q: And the Activity (Digitaria [28])?
A: The Activity was 2 /m2.

Q: And the Activity (Amaranthus dubius [29])?
A: The Activity was 3 /m2.

Q: And the Activity (Corynandra viscosa [30])?
A: Its Activity is 75%.

Q: What about the Activity (Portulaca oleracea [31]) of the same compound?
A: Its Activity is 75%.
